Reference: paper PMC10439952, “JT002, a small molecule inhibitor of the NLRP3 inflammasome for the treatment of autoinflammatory disorders” (Scientific Reports, 2023)

Key:
Format in all cases: cell-based
NLRP3 inflammasome [1] = target: T1, NLRP3 inflammasome (Mus musculus, UniProt Q8R4B8); assay: Inhibition of IL-1β production in mouse BMDMs stimulated by LPS + cholesterol crystals; parameters: host or cells: mouse PBMCs; mouse bone-marrow derived macrophages; mouse whole blood (C57BL/6 in the ex vivo study); details: Mouse BMDM, read-out: Geo Av IC50, IL-1β
T1 sequence (Q8R4B8 whole entry): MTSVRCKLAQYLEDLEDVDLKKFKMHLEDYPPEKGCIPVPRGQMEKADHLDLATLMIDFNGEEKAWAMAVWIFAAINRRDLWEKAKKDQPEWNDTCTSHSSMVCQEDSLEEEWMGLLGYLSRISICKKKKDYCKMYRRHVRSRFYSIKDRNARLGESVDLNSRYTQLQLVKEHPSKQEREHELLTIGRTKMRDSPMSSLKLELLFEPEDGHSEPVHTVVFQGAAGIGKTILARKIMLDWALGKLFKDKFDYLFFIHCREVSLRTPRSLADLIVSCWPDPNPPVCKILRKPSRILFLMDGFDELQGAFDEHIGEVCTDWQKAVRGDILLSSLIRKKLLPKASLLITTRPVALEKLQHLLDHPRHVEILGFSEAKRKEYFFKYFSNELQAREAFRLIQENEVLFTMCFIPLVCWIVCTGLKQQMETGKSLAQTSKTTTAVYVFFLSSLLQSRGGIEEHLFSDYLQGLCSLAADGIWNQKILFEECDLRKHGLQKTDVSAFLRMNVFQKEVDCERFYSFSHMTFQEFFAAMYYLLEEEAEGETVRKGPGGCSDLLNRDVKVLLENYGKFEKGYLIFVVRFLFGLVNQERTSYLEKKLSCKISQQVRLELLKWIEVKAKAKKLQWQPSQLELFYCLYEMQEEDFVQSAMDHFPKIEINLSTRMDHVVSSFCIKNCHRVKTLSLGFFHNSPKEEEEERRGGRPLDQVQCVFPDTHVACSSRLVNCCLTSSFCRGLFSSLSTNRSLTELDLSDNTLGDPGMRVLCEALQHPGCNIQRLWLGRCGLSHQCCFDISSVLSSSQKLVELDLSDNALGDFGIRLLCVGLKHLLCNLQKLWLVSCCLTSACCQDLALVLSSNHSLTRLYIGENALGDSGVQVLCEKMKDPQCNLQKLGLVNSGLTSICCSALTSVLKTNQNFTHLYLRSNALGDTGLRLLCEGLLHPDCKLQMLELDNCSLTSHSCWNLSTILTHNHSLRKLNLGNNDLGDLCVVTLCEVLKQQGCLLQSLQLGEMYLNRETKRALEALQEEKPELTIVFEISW
Procedure: (§1) Inflammasome activation and whole blood assays were essentially carried out as described earlier. Details can be found in the supplementary information section accompanying this publication. A protocol for blood draws from healthy volunteers and use of the blood in preclinical assays was approved by Western Institutional Review Board, Inc (Puyallup, WA, USA). Informed consent was obtained from each donor prior to the first blood draw.
(§2) Cell viability was determined by addition of an equal volume of CellTiter-Glo® 2.0 reagent (Promega) to the remaining cells/supernatant in each well. Intracellular Caspase-1 activity was measured using the Caspase-Glo® assay (Promega) according to the manufacturer’s instructions. The biochemical capsase-1 assay was conducted at Reaction Biology Corporation (Malvern, USA). Human IL-1β, IL-1α, and TNFα and mouse IL-1β were measured in cell culture supernatants using homogeneous time resolved fluorescence assay kits (HTRF, Cisbio, Codolet, France). Human IL-18 was measured in cell culture supernatants using an ELISA kit (R&D Systems, Minneapolis, MN, USA). Plasma IL-1β concentrations were determined by Quantikine® ELISA (R&D Systems, Minneapolis, MN).
(§3) 4H). MS: m/z 433.1 (M+H+). […]

NLRP3 inflammasome [2] = target: T1, NLRP3 inflammasome; assay: Inhibition of IL-1β production in mouse PBMCs stimulated by LPS + nigericin; parameters: host or cells: mouse PBMCs; mouse bone-marrow derived macrophages; mouse whole blood (C57BL/6 in the ex vivo study); details: Mouse PBMC, read-out: Geo Av IC50, IL-1β
Procedure: as §1, §2, §3

[3] = tested on: pyroptosis of mouse BMDMs; assay: Inhibition of pyroptotic cell death measured by cellular ATP content (CellTiter-Glo viability) in LPS + nigericin stimulated mouse BMDMs; details: Mouse BMDM, read-out: Geo Av IC50, Viability (pyroptosis, cellular ATP content)
Procedure: as §2
4H). MS: m/z 433.1 (M+H+).
Inflammasome activation.PBMCs (iXCells Biotechnologies, San Diego, USA) were thawed the day before the assay and seeded in complete medium (RPMI 1640 medium with GlutaMAX, supplemented with an additional 2.5 g/L D-glucose, 10% Fet al Bovine Serum, 100 mM Sodium Pyruvate, 1% Penicillin/Streptomycin, 10 mM HEPES and 0.05 mM β -mercaptoethanol) in polystyrene V-bottom 96-well plates at 5x10^4 cells per well and incubated overnight at 37°C with 5% CO 2. The next day, PBMC media was r eplaced with serum-fr ee media p rior t o the assay. […]

NLRP3 inflammasome [4] = target: T1, NLRP3 inflammasome; assay: Inhibition of IL-1β production in mouse BMDMs stimulated by LPS + ATP; parameters: host or cells: mouse PBMCs; mouse bone-marrow derived macrophages; mouse whole blood (C57BL/6 in the ex vivo study); details: Mouse BMDM, read-out: Geo Av IC50, IL-1β
Procedure: as §1, §2, §3

NLRP3 inflammasome [5] = target: T1, NLRP3 inflammasome; assay: Inhibition of IL-1β production in mouse PBMCs stimulated by LPS + ATP; parameters: host or cells: mouse PBMCs; mouse bone-marrow derived macrophages; mouse whole blood (C57BL/6 in the ex vivo study); details: Mouse PBMC, read-out: Geo Av IC50, IL-1β
Procedure: as §1, §2, §3

NLRP3 inflammasome [6] = target: T1, NLRP3 inflammasome; assay: Inhibition of non-canonical NLRP3 pathway IL-1β production in mouse BMDMs (Pam3CSK4 + transfected LPS); parameters: host or cells: mouse PBMCs; mouse bone-marrow derived macrophages; mouse whole blood (C57BL/6 in the ex vivo study); details: Mouse BMDM, read-out: Geo Av IC50, IL-1β
Procedure: as §1, §2, §3

## CO[C@@H]1COc2c(S(=O)(=O)NC(=O)Nc3c4c(cc5c3CCC5)CCC4)cnn2C1 [JT002]
NLRP3 inflammasome [1]
  IC50: 2 nM
NLRP3 inflammasome [2]
  IC50: 25 nM
[3]
  IC50: 7 nM
NLRP3 inflammasome [4]
  IC50: 5 nM
NLRP3 inflammasome [5]
  IC50: 7 nM
NLRP3 inflammasome [6]
  IC50: 30 nM
